Data: publication PMC4841536, “Characterization of the Anti-HCV Activities of the New Cyclophilin Inhibitor STG-175” (PLoS ONE, 2016)
Where “and” joins values, the source holds several entries; their conditions need not be identical. Equal entries are not always repeated. Where two headings read alike, the source gives them in different places.

Experiments:
[1] = test system: IL-2 promoter activation in Jurkat T-cell line; test: In vitro assay for immunosuppression: IL-2 promoter activation in engineered Jurkat T-cell line (betagalactosidase); type: cell-based; conditions: Homo sapiens; Jurkat cells activated with PMA 10 ng/mL, 24 h; read-out: IC50, inhibition of IL-2 production (immunosuppressive activity)
Method: IL-2 promoter activation upon T-cell stimulation was determined using an engineered Jurkat T-cell line, which expresses betagalactosidase when exposed to chemical non-specific factors like […] (PMA) and phytohematogglutinin (PHA) as described previously. DMSO or STG-175 were added together with PMA (10 ng/mL) to 1 million of Jurkat cells (triplicates). Betagalactosidase activity in cell lysates was quantified by fluorescence (460 nm) after 24 h.
(§1) Fig 1 Anti-PPIase and immunosuppressive activities of STG-175. A. Structures of cyclophilin inhibitors. Inhibition of CypA (B) and CypD (C) isomerase activities were assessed using the α-chymotrypsin-coupled assay. Each test compound was prepared at 10 concentrations (0.05–1000 nM). All solutions were equilibrated, and reactions conducted at 5°C. Reactions were initiated by mixing 95 μL reaction mix with 5 μL of the peptide to be cleaved and measuring OD405 nm at 6-sec intervals for 6 min. Data were fitted with Graphpad Prism 6.0 to obtain first-order rate constants. Enzyme catalyzed rate constants were calculated by subtracting the rate constant from uncatalyzed reactions (no CypA/D), and catalytic rate constants plotted as a function of inhibitor concentration to obtain IC50s. […] D. IL-2 promoter activation upon T-cell stimulation was determined using an engineered Jurkat T-cell line, which expresses betagalactosidase. Jurkat cells (1 million) were activated with PMA (10 ng/mL). […] The Y-axis values are expressed as percentage of activity. Data expressed as EC50s are representative of two independent experiments.
The formation of this trimolecular complex inhibits T cell proliferation by blocking the signaling pathway leading to IL-2 production upon T-cell stimulation. The immunosuppressive activity of STG-175 was evaluated by inhibition of the IL-2 production in Jurkat cells.

Human recombinant CypD = target: T1, Human recombinant CypD (Homo sapiens, UniProt P30405); test: α-chymotrypsin-coupled PPIase assay, CypD isomerase activity; type: biochemical; conditions: 5°C, 10 concentrations 0.05–1000 nM
T1 construct: purchased Atgen
T1 sequence (P30405 30-207): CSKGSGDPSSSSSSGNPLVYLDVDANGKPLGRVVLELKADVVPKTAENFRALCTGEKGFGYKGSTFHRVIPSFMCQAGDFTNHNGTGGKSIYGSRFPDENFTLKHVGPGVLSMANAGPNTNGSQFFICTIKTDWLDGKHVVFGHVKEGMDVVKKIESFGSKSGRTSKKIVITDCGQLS
Method: (§2) Inhibition of CypA and CypD isomerase activities were quantified using a α-chymotrypsin-coupled assay adapted to a 96-well plate format. Human recombinant CypA or CypD (Atgen) was dissolved to 10 nM in PPIases buffer (50 mM Hepes, 100 mM NaCl, 1 mg/ml bovine serum albumin, 1 mg/ml α-chymotrypsin; pH 8). Succinyl-AAPF-pNA peptide substrate (Sigma) was dissolved to 3.2 mM in LiCl/trifluoroethanol. Each CypI was prepared at 10 concentrations in DMSO, then diluted into CypA/D PPIase buffer to 0.05–1000 nM. Incubations were performed at 5°C. Ninety five μL of reaction mix was added to 5 μL peptide in 96-wells and OD405 nm measured at 6-sec intervals for 6 min using a Biotek Synergy H4 plate reader. Data were fitted with Graphpad Prism 6.0 to acquire first-order rate constants, which were calculated by subtracting the rate constant from uncatalyzed reactions (no CypA/D). The catalytic rate constants were plotted as a function of inhibitor concentration to obtain IC50s.
(§3) The inhibition of the isomerase activities of CypA and CypD were measured with 10 increasing concentrations of STG-175 to quantify IC50 values.
as §1, with “Data were fitted with Graphpad Prism 6.0 to obtain first-order rate constants.” left out, “betagalactosidase.” for “betagalactosidase. Jurkat cells (1 million) were activated with PMA (10 ng/mL).”

Human recombinant CypA = target: T2, Human recombinant CypA (Homo sapiens, UniProt P62937); test: α-chymotrypsin-coupled PPIase assay, CypA isomerase activity; type: biochemical; conditions: 5°C, 10 concentrations 0.05–1000 nM; read-out: IC50, neutralization of the isomerase activity of CypA
T2 construct: purchased Atgen
T2 sequence (P62937 whole entry): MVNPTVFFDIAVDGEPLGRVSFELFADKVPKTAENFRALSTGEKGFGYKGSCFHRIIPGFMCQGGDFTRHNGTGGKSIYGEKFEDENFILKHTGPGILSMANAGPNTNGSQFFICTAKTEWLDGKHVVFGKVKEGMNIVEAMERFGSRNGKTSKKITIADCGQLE
Method: as §2, with “The catalytic rate constants were plotted as a function of inhibitor concentration to obtain IC50s.” left out
as §3
Fig 1 Anti-PPIase and immunosuppressive activities of STG-175. […] Inhibition of CypA (B) and CypD (C) isomerase activities were assessed using the α-chymotrypsin-coupled assay. […] D. IL-2 promoter activation upon T-cell stimulation was determined using an engineered Jurkat T-cell line, which expresses betagalactosidase. […] The Y-axis values are expressed as percentage of activity. […]

[2] = test system: subgenomic Con1 (GT1b) replicon in Huh-7 cells; type: cell-based, hepatitis C virus; conditions: for passage at which resistant variants emerged (CypI comparison): Fig 3C; for passages until development of HCV resistance, DAA alone ("instead of" comparison): compared with combination
Method: Huh-7 cell expressing subgenomic Con1 (GT1b) replicon were seeded in a 10 cm dish at a density of 3 × 10^5 cells per culture flask in complete DMEM (with G418) with STG-175 or selected drugs. Cells were grown until they reached 90% confluence, trypsinized and re-seeded at the same cell concentration in a new 10-cm dish with the same drug concentration. Cells were passaged 22 times in the presence of drugs. At each passage, sample of cells were collected, RNA extracted according to the manufacturer's instructions and analyzed by RT-PCR for HCV RNA levels.
(§4) Fig 3 Replicon clearance, replication rebound and resistance analyses. […] Then drugs were removed to allow viral replication rebound to occur. At each passage, samples of cells were collected, RNA extracted and analyzed by RT-PCR for HCV RNA levels. B. Emergence of resistance: Con1 replicon Huh-7 cells were passaged 22 times in the absence or presence of STG-175 or selected DAAs. At each passage, sample of cells were collected, RNA extracted and analyzed by RT-PCR for HCV RNA levels. C. […] Data are expressed as number of HCV RNA copies per cell. […] Data are expressed as mean of relative light units and calculated EC50s are presented. […] E. Degree of resistance of D320E and Y321N Con1 variants: Left panel. Wild-type (WT), D320E and D320/Y321N NS5A Con1 RNA were electroporated into Huh7.5.1 cells and replication monitored over 8 days by quantifying the levels of intracellular HCV RNA. Right panel. Same as just above except that increasing concentrations of STG-175 were added at the time of the electroporation. […] STG-175 is taken as the substance from the printed x-axis title 'STG-175 in Log nM'.
We then examined the development of resistance to STG-175. GT1b Con1 sub-genomic replicon cells were grown in the presence of STG-175 (0.25 and 1 μM), telaprevir (2.5 and 10 μM), boceprevir (2.5 and 10 μM), daclatasvir 100 pM and 1 nM) or a combination of STG-175 (0.25 μM) with either telaprevir (2.5 μM), boceprevir (2.5 μM) or daclatasvir (100 pM) for 22 successive passages. At each passage, fresh drug was added and a sample of cells was taken to quantify HCV RNA levels by RT-qPCR.

[3] = test system: wild-type Con1 GT1b replicon; test: Electroporated Con1 RNA replication in Huh7.5.1 cells (RT-qPCR), wild-type; type: cell-based; conditions: Hepatitis C virus
Text: (§5) The GT1b subgenomic firefly luciferase reporter replicon pFK-I389/NS3–3 was provided by R. Bartenschlager. The GT1B subgenomic NS3, NS5A and NS5B mutants were created via homologous recombination using the In-Fusion HD Cloning kit (Clontech) as we described previously. […] The in vitro transcription of wild-type and mutant Con1 RNA was accomplished using the T7 MEGAscript kit (Ambion) by following the manufacturer’s instructions. In vitro-transcribed RNAs were introduced into Huh7.5.1 cells by electroporation. Trypsinized cells were washed twice and resuspended in phosphate-buffered saline (PBS) (calcium-free and magnesium-free) at 1x 10^7 cells per ml. Ten micrograms of RNA for each mutant was mixed with 0.4 mL of cells in a 4-mm cuvette, and a Bio-Rad Gene Pulser system was used to deliver a single pulse at 0.27 kV, 100 ohms, and 960 μF. Cells were then plated in 12-well dishes. RNA transfection efficiency and HCV subgenomic replication were assessed by reverse transcription-quantitative PCR (RT-qPCR) and presented as genome equivalents (GE) per microgram of total RNA as described previously. We measured by RT-qPCR the replication of wild-type, STG-175-, NS5Ai-, NS3i- and NS5Bi-resistant mutants in the presence of increasing concentrations of SGT-175, daclatasvir, telaprevir, boceprevir and sofosbuvir over a period of 8 days.
as §4
To determine whether the D320E and Y321N substitutions truly render HCV resistant to STG-175, they were introduced into wild-type Con1 replicon as we described previously. Introduction of the substitutions was verified by sequencing. In vitro-transcribed wild-type, D320E and D320E/Y321N HCV RNAs were then electroporated into Huh7.5.1 cells and viral replication assessed by RT-qPCR and presented as GE per microgram of total RNA as we described previously. […] We then analyzed the replication of wild-type, D320E and D320E/Y321N in the presence of increasing concentrations of SGT-175 over a period of 8 days.
Fig 5 Cross-resistance analyses.

[4] = test system: HCV GT4a subgenomic replicon ED43/SG-Feo; parameters: method as in PMID 24687498; conditions: cited from earlier work
[5] = test system: D320E/Y321N NS5A Con1 GT1b replicon; test: microbe, parasite or virus in culture; type: cell-based, hepatitis C virus; conditions: Hepatitis C virus, GT1B
Text: as §5
(§6) D320E and D320E/Y321N NS5A substitutions were introduced into wild-type Con1 GT1 replicon as we described previously. Con1-NS5A-D320E, and Con1-NS5A-D320E/Y321N were generated using the following forward and reverse phosphorylated (p) primer sets, respectively: (p)[…] and (p)[…], and (p)[…] and (p)[…]. PCR products were circularized with Quick T4 DNA ligase (NEB) for 5 min and transformed into NEB 10-beta competent cells. The NS5A gene was sequenced to confirm the introduced substitutions.
as §4
(§7) To determine whether the D320E and Y321N substitutions truly render HCV resistant to STG-175, they were introduced into wild-type Con1 replicon as we described previously. Introduction of the substitutions was verified by sequencing.

[6] = test system: D320E NS5A Con1 GT1b replicon; test: microbe, parasite or virus in culture; type: cell-based, hepatitis C virus; conditions: Hepatitis C virus, GT1B
Text: as §5, §6, §4, §7

[7] = Huh-7.5.1, 192 h, read-out: EC50 GT1b WT
[8] = Huh-7.5.1, 192 h, read-out: EC50 D320E/Y321N NS5A
[9] = Huh-7.5.1, 192 h, read-out: EC50 D320E NS5A

Structure (SMILES) | IC50 [1] [nM] | EC50 [3, 7] [nM] | passage at which resistance began ([2]; 2.5 μM) [passage] | passage at which resistance began ([2]; 10 μM) [passage] | passages until development of HCV resistance, DAA alone ("instead of" comparison) [2] [passages] | EC50 [5, 8] [nM] | EC50 [6, 9] [nM] | further results
C/C=C/C[C@@H](C)[C@@H](O)[C@H]1C(=O)N[C@@H](CC)C(=O)N(C)[C@H](C)C(=O)N(CC)[C@@H](C(C)C)C(=O)N[C@@H](C(C)C)C(=O)N(C)[C@@H](CC(C)C)C(=O)N[C@@H](C)C(=O)N[C@H](C)C(=O)N(C)[C@@H](CC(C)C)C(=O)N(C)[C@@H](CC(C)C)C(=O)N(C)[C@@H](C(C)C)C(=O)N1C [ALV, alisporivir] | 85.7 | – | – | – | – | – | – | IC50 (Human recombinant CypD; read-out: IC50, neutralization of the isomerase activity of CypD): 3.4 nM; IC50 (Human recombinant CypA): 1.7 nM; passage at which resistant variants emerged (CypI comparison) ([2]; 0.25 μM of drug selection): 15 passage; passage at which resistance began ([2]; 1 μM drug pressure, first account (Fig 3B)): 16 passage; passage at which resistant variants emerged (CypI comparison) ([2]; 1 μM of drug selection): 17 passage
C/C=C/C[C@@H](C)[C@@H](O)[C@H]1C(=O)N[C@@H](CC)C(=O)N(C)[C@H](SCCN(C)C)C(=O)N(C)[C@@H](CC(C)(C)O)C(=O)N[C@@H](C(C)C)C(=O)N(C)[C@@H](CC(C)C)C(=O)N[C@@H](C)C(=O)N[C@H](C)C(=O)N(C)[C@@H](CC(C)C)C(=O)N(C)[C@@H](CC(C)C)C(=O)N(C)[C@@H](C(C)C)C(=O)N1C [SCY-635] | 38.6 | – | – | – | – | – | – | IC50 (Human recombinant CypD; IC50, neutralization of the isomerase activity of CypD): 7.1 nM and 7.2 nM
CC(C)(C)NC(=O)N[C@H](C(=O)N1C[C@H]2[C@@H]([C@H]1C(=O)NC(CC1CCC1)C(=O)C(N)=O)C2(C)C)C(C)(C)C (stereo partly drawn) [boceprevir] | – | 138 | 7 | 10 | 7 | 129 | 92.7 | activity against GT4a [4]: inactive
COC(=O)N[C@H](C(=O)N1CCC[C@H]1c1nc(-c2ccc(-c3ccc(-c4c[nH]c([C@@H]5CCCN5C(=O)[C@@H](NC(=O)OC)C(C)C)n4)cc3)cc2)c[nH]1)C(C)C [daclatasvir] | – | – | – | – | 4 | – | – | EC50 ([3]; Huh-7.5.1, read-out: EC50 wild-type replicon): 0.043 nM; passage at which resistance began ([2]; 100 pM): 4 passage; passage at which resistance began ([2]; 1 nM): 5 passage; EC50 ([5]; Huh-7.5.1, read-out: EC50 D320E/Y321N replicon): 0.039 nM; EC50 ([6]; Huh-7.5.1, read-out: EC50 D320E replicon): 0.032 nM
CC(C)OC(=O)[C@H](C)N[P@](=O)(OC[C@H]1O[C@@H](n2ccc(=O)[nH]c2=O)[C@](C)(F)[C@@H]1O)Oc1ccccc1 [sofosbuvir, reference compound] | – | 177 | – | – | – | 111 | 120 | –
CCC[C@H](NC(=O)[C@@H]1[C@H]2CCC[C@H]2CN1C(=O)[C@@H](NC(=O)[C@@H](NC(=O)c1cnccn1)C1CCCCC1)C(C)(C)C)C(=O)C(=O)NC1CC1 [telaprevir] | – | 290 | 7 | 10 | 6 | 314 | 230 | –
